Experimental data reported in article PMC4315936 (Redox Biology, 2015).
pIC50: −log10 of the molar value.

Biological target: mitochondrial complex I (NADH:ubiquinone oxidoreductase, NQR) (Mus musculus, UniProt P03888+Q91WD5+Q9DC70)
Assay: NQR activity
Assay type: biochemical

O=C1Nc2ccc(Cl)cc2[C@@](C#CC2CC2)(C(F)(F)F)O1 [EFV, efavirenz]
pIC50: > 5.00
